For one data set, the system named is Plasmodium falciparum. The data set can be described thus: in vitro asexual blood stage growth of Plasmodium falciparum. Format: cell-based. To be noted: for pIC50: Plasmodium falciparum, P. falciparum in vitro. As to the method: Presented herein is experiment data representing tranexamic acid as an antimalarial druggable scaffold. The results shown below show the efficacy of tranexamic acid against both Plasmodium falciparum and P. berghei across the parasite lifecycle. The data herein illustrates the ability of tranexamic acid to act as an antimicrobial agent, and more particularly, in some embodiments, as an antimalarial drug. Experiments were conducted to test, in vitro, the ability of tranexamic acid to impair the asexual intraerythrocytic development of P. falciparum. All of the symptoms associated with malaria infection are caused by the asexual blood stages, which makes them a logical therapeutic target.
Up to six different concentrations of tranexamic acid plus a negative control (carrier with no drug) were tested in a highly synchronous culture. A two-fold serial dilution starting at 200 mM was prepared, replenishing the drug daily for four consecutive days (i.e. two complete intraerythrocytic cycles).
FIG. 1 illustrates in vitro asexual blood stage growth at day 1 after 1 dose of tranexamic acid (TXA). Values are the mean of three technical replicates, and error bars represent the standard deviation. FIG. 2 illustrates in vitro asexual blood stage growth at day 3 after 3 doses of tranexamic acid (TXA). Values are the mean of three technical replicates, and error bars represent the standard deviation. FIG. 3 illustrates in vitro IC50 of tranexamic acid after three daily doses. Values are the mean of three technical replicates, relative to the minimal effect (i. e. the parasitemia from the samples with no drug). Error bars represent the standard deviation. Morphological defective parasites could be observed at day 4 in the two lowest tested concentrations (i.e. 12.5 and 6.25 mM). Healthy segmented schizonts were selected from the sample mock-treated in the absence of tranexamic acid (0 mM).

The test system of data set [1] is Plasmodium berghei ANKA mCherry. Format: in vivo, mice (outbred CD1). As to conditions: mice. How it is done: In addition to in vitro experiments to test the ability of tranexamic acid to impair the asexual intraerythrocytic development of P. falciparum, experiments were conducted to test, in vivo, the ability of tranexamic acid to cure asynchronized blood stage infections of Plasmodium berghei ANKA mCherry in mice. P. berghei is a species in the genus Plasmodium subgenus Vinckeia and is a protozoan parasite that causes malaria in rodents. Due to its ability to infect rodents and relative ease of genetic engineering, P. berghei is a popular model organism for the study of human malaria, and was thus used in the present disclosure.
Recipient mice (n=5/group; 3 groups) received blood from a donor mouse containing asynchronous asexual blood stages of P. berguei. Parasitemia was monitored and when it reached at least 5% mice were treated intravenously (i.v.) with 20, 10, or 0 mg of tranexamic acid in a phosphate-buffered saline (PBS) carrier. Blood smears from tail snips were prepared every 24 hours, or until the humane endpoint criteria was reached, to monitor parasitemia.
FIG. 4 illustrates in vivo asexual blood stage growth of P. berghei after the injection of the PBS carrier. […]

pIC50: −log10 of the molar value. Read-outs that look alike come from different tables or passages of the source.

As to `NC[C@H]1CC[C@H](C(=O)O)CC1` [tranexamic acid], the clearance of infection result is reported as “cleared the infection” in the data set with Plasmodium falciparum (100 mM, after 48 hours, two doses) and “completely cleared the infection” in the data set with Plasmodium falciparum (200 mM, after 24 hours, single dose, FIG. 1). Besides, in the data set with Plasmodium falciparum (12.5 and 6.25 mM, day 4, some parasites arrested at schizont-like morphology), the parasite morphology result is “morphological defects could be observed”. Besides, the pIC50 with Plasmodium falciparum (72 h, after 3 daily doses, FIG. 3, read-out: IC50 at day 3) is 1.94; in the data set on Plasmodium falciparum (drug replenished on a daily basis, read-out: in vitro IC50), 1.94. The growth delay result in the data set with Plasmodium falciparum (some of the tested concentrations, rings and early trophozoites on day 3 (72 hours after first dose), FIG. 2) is given as “a growth delay was observed”. For the same molecule, the “equivalent in vitro concentration based on estimated volemia” value in data set [1] (10 mg injection i.v.) is recorded as “approximately 37 mM”; in data set [1] (20 mg injection i.v.), approximately 75 mM.

A word on the pIC50: it is the IC50 on a negative log10 scale, so that one unit is a factor of ten.

The values above are taken from US20230080241A1 (priority 2020, published 2023).
